Structures can show the parent of a compound that is named as a salt. Where two headings read alike, the source gives them in different places. One block for each compound: values may come before it.
What was measured:
[1] = system: allergen-induced degranulation of peripheral leukocytes; test: Inhibition of the allergen-induced degranulation reaction of peripheral leukocytes (method of Siraganian and Hook); format: cell-based; conditions: Homo sapiens, Leukocyte
Method: For the detection of the anti-allergic action, there was measured the inhibition of the allergen-induced degranulation reaction of peripheral leukocytes; one operated according to the method of R. P. Siraganian and W. A. Hook (Manual of Clinical Immunology, 2nd edition 1980, pub. N. R. Rose and H. Friedman, Am. Soc. for Microbiology, pages 808 to 821).

[2] = system: gram-positive and gram-negative bacteria, pathogenic fungi and protozoa; conditions: Celmer and Solomons, J. Am. Chem. Soc. 77 (1955) 2861; cited from earlier work
[3] = system: mouse; test: Toxicity LD50 p.o., mouse; format: in vivo; conditions: thiolutin vs theophylline
[4] = system: mouse; conditions: p.o., Table I, for the toxicity cf. literature named; cited from earlier work
[5] = Table I, 50% inhibition in vitro, read-out: ID50 (the source's name)

Compound: Cn1c(=O)c2[nH]cnc2n(C)c1=O [theophylline, reference compound]
IC50 [1, 5]: 5000 µM

Compound: CCC(=O)Nc1c2sscc-2n(C)c1=O [aureothricin]
IC50 ([1]; read-out: ID50 (the source's name)): 0.9 µM
antibiotic action, in words [2]: action against gram-positive and gram-negative bacteria, pathogenic fungi and protozoa

Compound: CC(=O)NC1=C(S)C(=CS)N(C)C1=O [Example 3, 3-Acetamido-4-mercapto-5-mercaptomethylene-1-methylpyrrolin-2-one disodium salt]
IC50 [1, 5]: 2.5 µM

Compound: CN(C)C1=C(S)C(=CS)N(C)C1=O [Example 5, 3-Dimethylamino-4-mercapto-5-mercaptomethylene-1-methylpyrrolin-2-one disodium salt]
IC50 ([1]; Examples 3 to 5, no unit printed at the value, read-out: ID50 (the source's name)): 50 µM
IC50 [1, 5]: 5 µM

Compound: CC(=O)Nc1c2sscc-2n(C)c1=O [thiolutin]
IC50 ([1]; read-out: ID50): 0.4 µM
factor of therapeutic index against comparison compound theophylline [3]: more than 10^4
LD50 [4]: 25 mg/kg
antibiotic action, in words [2]: action against gram-positive and gram-negative bacteria, pathogenic fungi and protozoa

Continued, values first:

IC50 [1, 5]: 1.7 µM
Compound: CC(C)C(=O)Nc1c2sscc-2n(C)c1=O [isobutyrylpyrrothine]

IC50 [1, 5]: 4.6 µM
Compound: CN(C)c1c2sscc-2n(C)c1=O [Example 4, N,N-Dimethylpyrrothine]

IC50 [1, 5]: 0.9 µM
Compound: Cn1c2cssc-2c(N)c1=O [pyrrothine, 4-methyl-6-amino-1,2-dithiolo[4,3-b]pyrrol-5(4H)-one]

Reference: patent US4760077A, “Pyrrothine derivatives and pharmaceutical use thereof” (Boehringer Mannheim GmbH, priority 1984, dated 1988)
